pIC50: −log10 of the molar value. Active and inactive are the calls of the source. No cut-off for these calls is given here.
How the values were obtained:
[1] = Acute toxicity in rat assessed as change in animal skin at 300 to 1000 mg/kg, po measured after 6 hrs; type: organism-based; details: in vivo, dose 300-1000 mg/kg
[2] = system: Rattus norvegicus; assay: (§1) Antioxidant activity in high fat diet/STZ induced diabetic Wistar rat model assessed as appearance of sufficient cloudy swelling of columnar cells in tubules at 10 mg/kg, IG pretreated with STZ for 21 days followed by compound treatment once daily for 21 days by H and E staining based microscopic analysis; type: functional, organism-based; details: time 21.0 day
[3] = system: Rattus norvegicus; assay: Antioxidant activity in IG dosed high fat diet/STZ induced diabetic Wistar rat model assessed as reversal of GSH reduction in liver pretreated with STZ for 21 days followed by compound treatment once daily for 21 days by spectrophotometric analysis; type: functional, organism-based; details: dose 3-30 mg/kg, time 21.0 day
[4] = target: Dipeptidyl peptidase 8 (Homo sapiens, UniProt Q6V1X1); assay: Inhibition of N-terminal GST/His-tagged human recombinant DPP-8 (1 to 898 residues) expressed in Sf9 insect cells using Ala-Pro-AMC dipeptide as substrate by fluorescence based assay
[5] = Acute toxicity in rat assessed as behavioural alterations at 300 to 1000 mg/kg, po measured after 6 hrs; type: organism-based; details: in vivo, dose 300-1000 mg/kg
[6] = system: Rattus norvegicus; assay: Antioxidant activity in high fat diet/STZ induced diabetic Wistar rat model assessed as reduction in glomeruli infiltration in stroma at 3 to 30 mg/kg, IG pretreated with STZ for 21 days followed by compound treatment once daily for 21 days by H and E staining based microscopic analysis; type: functional, organism-based; details: dose 3-30 mg/kg, time 21.0 day
[7] = system: Rattus norvegicus; assay: Antioxidant activity in high fat diet/STZ induced diabetic Wistar rat model assessed as reduction in mesangial cellularity and matrix at 10 to 30 mg/kg, IG pretreated with STZ for 21 days followed by compound treatment once daily for 21 days by H and E staining based microscopic analysis; type: functional, organism-based; details: dose 10-30 mg/kg, time 21.0 day
[8] = system: Rattus norvegicus; assay: Antioxidant activity in high fat diet/STZ induced diabetic Wistar rat model assessed as appearance of dilated central veins in hepatocytes at 30 mg/kg, IG pretreated with STZ for 21 days followed by compound treatment once daily for 21 days by H and E staining based microscopic analysis; type: functional, organism-based; details: time 21.0 day
[9] = system: Rattus norvegicus; assay: Antioxidant activity in IG dosed high fat diet/STZ induced diabetic Wistar rat model assessed as reversal of GPx reduction in kidney pretreated with STZ for 21 days followed by compound treatment once daily for 21 days by spectrophotometric analysis; type: functional, organism-based; details: dose 3-30 mg/kg, time 21.0 day
[10] = system: Rattus norvegicus; assay: Antioxidant activity in high fat diet/STZ induced diabetic Wistar rat model assessed as reduction in mesangial cellularity and matrix at 3 mg/kg, IG pretreated with STZ for 21 days followed by compound treatment once daily for 21 days by H and E staining based microscopic analysis; type: functional, organism-based; details: time 21.0 day
[11] = system: Rattus norvegicus; assay: Antioxidant activity in IG dosed high fat diet/STZ induced diabetic Wistar rat model assessed as reversal of SOD reduction in liver pretreated with STZ for 21 days followed by compound treatment once daily for 21 days by spectrophotometric analysis; type: functional, organism-based; details: dose 3-30 mg/kg, time 21.0 day
[12] = Acute toxicity in rat assessed as diarrhoea at 2000 mg/kg, po measured after 30 mins to 4 hrs; type: organism-based; details: in vivo, time 0.5-4 hrs
[13] = system: Rattus norvegicus; assay: Antioxidant activity in high fat diet/STZ induced diabetic Wistar rat model assessed as appearance of typical columnar cells in tubules at 30 mg/kg, IG pretreated with STZ for 21 days followed by compound treatment once daily for 21 days by H and E staining based microscopic analysis; type: functional, organism-based; details: time 21.0 day
[14] = Acute toxicity in rat assessed as change in animal fur at 300 to 1000 mg/kg, po measured after 6 hrs; type: organism-based; details: in vivo, dose 300-1000 mg/kg
[15] = system: Rattus norvegicus; assay: Antioxidant activity in IG dosed high fat diet/STZ induced diabetic Wistar rat model assessed as reversal of SOD reduction in kidney pretreated with STZ for 21 days followed by compound treatment once daily for 21 days by spectrophotometric analysis; type: functional, organism-based; details: dose 3-30 mg/kg, time 21.0 day
[16] = system: Rattus norvegicus; assay: as §1, with “recovery” for “appearance”, “pancreatic epithelial cell damage and acini architecture” for “sufficient cloudy swelling of columnar cells in tubules”; type: functional, organism-based; details: time 21.0 day
[17] = system: Rattus norvegicus; assay: Antioxidant activity in high fat diet/STZ induced diabetic Wistar rat model assessed as appearance of round-oval nuclei in hepatocytes at 30 mg/kg, IG pretreated with STZ for 21 days followed by compound treatment once daily for 21 days by H and E staining based microscopic analysis; type: functional, organism-based; details: time 21.0 day
[18] = system: Rattus norvegicus; assay: Antioxidant activity in high fat diet/STZ induced diabetic Wistar rat model assessed as healing of hepatocyte cytoplasm at 3 to 10 mg/kg, IG pretreated with STZ for 21 days followed by compound treatment once daily for 21 days by H and E staining based microscopic analysis; type: functional, organism-based; details: dose 3-10 mg/kg, time 21.0 day
[19] = system: Rattus norvegicus; assay: Antioxidant activity in high fat diet/STZ induced diabetic Wistar rat model assessed as repair of pancreatic epithelial cells with reduced fibrosis at 30 mg/kg, IG pretreated with STZ for 21 days followed by compound treatment once daily for 21 days by H and E staining based microscopic analysis; type: functional, organism-based; details: time 21.0 day
[20] = system: Rattus norvegicus; assay: Antioxidant activity in high fat diet/STZ induced diabetic Wistar rat model assessed as hepatocyte cytoplasm recovery at 30 mg/kg, IG pretreated with STZ for 21 days followed by compound treatment once daily for 21 days by H and E staining based microscopic analysis; type: functional, organism-based; details: time 21.0 day
[21] = Acute toxicity in po dosed rat measured after 30 mins to 4 hrs; type: organism-based; details: in vivo, time 0.5-4 hrs
[22] = Acute toxicity in rat assessed as change in salivation at 2000 mg/kg, po measured after 30 mins to 4 hrs; type: organism-based; details: in vivo, time 0.5-4 hrs
[23] = Acute toxicity in rat assessed as change in salivation at 300 to 1000 mg/kg, po measured after 6 hrs; type: organism-based; details: in vivo, dose 300-1000 mg/kg
[24] = system: Rattus norvegicus; assay: Antidiabetic activity in high fat diet/STZ induced diabetic Wistar rat model assessed as increase in HDL level at 3 to 30 mg/kg, IG pretreated with STZ for 21 days followed by compound treatment once daily for 21 days by spectrophotometric analysis; type: functional, organism-based; details: dose 3-30 mg/kg, time 21.0 day

Chain of Dipeptidyl peptidase 8 (Q6V1X1 whole entry, the tested form may be a part): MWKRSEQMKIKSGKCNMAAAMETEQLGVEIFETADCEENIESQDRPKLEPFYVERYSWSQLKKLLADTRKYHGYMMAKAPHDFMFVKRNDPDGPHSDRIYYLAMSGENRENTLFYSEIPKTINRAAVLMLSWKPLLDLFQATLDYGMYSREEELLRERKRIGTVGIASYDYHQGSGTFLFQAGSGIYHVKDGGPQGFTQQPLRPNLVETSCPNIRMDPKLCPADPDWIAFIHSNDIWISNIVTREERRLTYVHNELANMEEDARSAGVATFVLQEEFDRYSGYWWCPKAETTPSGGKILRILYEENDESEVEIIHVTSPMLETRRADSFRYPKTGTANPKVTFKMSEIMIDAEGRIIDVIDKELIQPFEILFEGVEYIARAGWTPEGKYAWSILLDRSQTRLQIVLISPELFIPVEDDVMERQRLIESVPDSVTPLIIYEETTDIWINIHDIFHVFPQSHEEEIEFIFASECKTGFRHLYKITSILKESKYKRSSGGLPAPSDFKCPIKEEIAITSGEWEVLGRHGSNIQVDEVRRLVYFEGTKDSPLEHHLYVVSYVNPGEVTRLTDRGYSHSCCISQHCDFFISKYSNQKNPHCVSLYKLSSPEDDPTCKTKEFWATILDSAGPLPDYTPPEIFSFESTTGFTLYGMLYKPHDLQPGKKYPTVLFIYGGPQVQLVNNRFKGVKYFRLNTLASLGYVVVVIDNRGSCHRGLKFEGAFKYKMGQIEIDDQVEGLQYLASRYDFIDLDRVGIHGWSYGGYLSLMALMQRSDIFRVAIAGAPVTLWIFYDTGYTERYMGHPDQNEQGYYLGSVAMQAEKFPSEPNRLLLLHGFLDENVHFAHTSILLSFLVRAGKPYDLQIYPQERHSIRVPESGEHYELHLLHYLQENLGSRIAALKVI

**Q.** With `Nc1nc(NC2=NC(c3ccccc3)=CC(c3cccc([N+](=O)[O-])c3)O2)nc(N2CCOCC2)n1` (centres undefined) as the molecule, how does the Activity [1] read?
**A.** Its Activity is “Non-Toxic”.

**Q.** And the Activity [2]?
**A.** The Activity was “Active”.

**Q.** What about the Activity [3] of the same molecule?
**A.** The Activity was “Dose-Dependent Effect”.

**Q.** What about the pIC50 [4] of the same molecule?
**A.** Its pIC50 is under 6.40.

**Q.** And the Activity [5]?
**A.** The Activity was “Non-Toxic”.

**Q.** And the Activity [6]?
**A.** The Activity was “Active”.

**Q.** And the Activity [7]?
**A.** The Activity was “Active”.

**Q.** And the Activity [8]?
**A.** The Activity was “Active”.

**Q.** What about the Activity [9] of the same molecule?
**A.** The Activity was “Dose-Dependent Effect”.

**Q.** What about the Activity [10] of the same molecule?
**A.** The Activity was “inactive”.

**Q.** What about the Activity [11] of the same molecule?
**A.** Its Activity is “Dose-Dependent Effect”.

**Q.** And the Activity [12]?
**A.** The Activity was “Non-Toxic”.

**Q.** And the Activity [13]?
**A.** The Activity was “Active”.

**Q.** And the Activity [14]?
**A.** The Activity was “Non-Toxic”.

**Q.** And the Activity [15]?
**A.** The Activity was “Dose-Dependent Effect”.

**Q.** And the Activity [16]?
**A.** The Activity was “Active”.

**Q.** What about the Activity [17] of the same molecule?
**A.** The Activity was “Active”.

**Q.** And the Activity [18]?
**A.** The Activity was “Active”.

**Q.** And the Activity [19]?
**A.** The Activity was “Active”.

**Q.** And the Activity [20]?
**A.** The Activity was “Active”.

**Q.** What about the LD50 [21] of the same molecule?
**A.** Its LD50 is 2000 mg/kg.

**Q.** And the Activity [22]?
**A.** The Activity was “Non-Toxic”.

**Q.** And the Activity [23]?
**A.** Its Activity is “Non-Toxic”.

**Q.** What about the Activity [24] of the same molecule?
**A.** The Activity was “Active”.

— ChEMBL document CHEMBL5329166, “Discovery of imeglimin-inspired novel 1,3,5-triazine derivatives as antidiabetic agents in streptozotocin-induced diabetes in Wistar rats via inhibition of DPP-4” (RSC Med Chem, 2023)
